From PubChem BioAssay (NCI)
Values joined by “and” are separate entries in the source; they are usually repeats but may differ in a detail not shown here. Equal values may be shown once.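 Tested at 5 concentrations; 48 h exposure; 96-well plates; endpoints linearly interpolated, else capped at highest concentration. GI50: concentration for 50% inhibition of growth. TGI: concentration producing complete growth inhibition.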

Legend:
Assay in all cases: NCI-60 cell line screen, 48 h
SNB-19 CNS = test system: SNB-19 CNS
A498 renal = test system: A498 renal
MALME-3M melanoma = test system: MALME-3M melanoma
UACC-257 melanoma = test system: UACC-257 melanoma
M14 melanoma = test system: M14 melanoma
COLO 205 colon = test system: COLO 205 colon
U251 CNS = test system: U251 CNS
NCI-H522 lung = test system: NCI-H522 lung
SN12C renal = test system: SN12C renal
MDA-MB-231 breast = test system: MDA-MB-231 breast

Row | Compound | GI50 (SNB-19 CNS) [µM] | TGI (SNB-19 CNS) [µM] | GI50 (A498 renal) | TGI (A498 renal) | GI50 (MALME-3M melanoma) [µM] | TGI (MALME-3M melanoma) [µM] | GI50 (UACC-257 melanoma) [µM] | TGI (UACC-257 melanoma) [µM] | GI50 (M14 melanoma) [µM] | TGI (M14 melanoma) [µM] | GI50 (COLO 205 colon) | TGI (COLO 205 colon) [µM] | GI50 (U251 CNS) [µM] | TGI (U251 CNS) [µM] | GI50 (NCI-H522 lung) | TGI (NCI-H522 lung) [µM] | GI50 (SN12C renal) | TGI (SN12C renal) [µM] | GI50 (MDA-MB-231 breast) [µM] | TGI (MDA-MB-231 breast) [µM]
1 | Cc1cc(Nc2c3ccccc3nc3ccccc23)ccc1NS(C)(=O)=O | 5.65 | 35.9 | 2.24 µM | 10.6 µM | 3.4 | 10.3 | 2.41 | 9.58 | 3.69 | 14.1 | 2.44 µM | 6.35 | 3.17 | 14 | 3.3 µM | 13.1 | 3.78 µM | 20.8 | 4.35 | 19.7
2 | COc1cc(Nc2ncc(F)c(Nc3ccc4c(n3)NC(=O)C(C)(C)O4)n2)cc(OC)c1OC | > 100 | > 100 | 0.148 µM and 0.352 µM | 0.547 µM and 2.15 µM | > 100 | > 100 | > 10 | > 10 | > 100 | > 100 | 2.4 µM and 2.55 µM | > 100 | > 10 | > 10 | 1.94 µM and 1.43 µM | > 100 | 0.667 µM and 2.86 µM | > 100 | 3.09 | > 10
3 | Cc1[nH]c2ccccc2c1-c1cc(-c2cc(-c3c(C)[nH]c4ccccc34)nc(N)n2)nc(N)n1 |  | > 100 |  | > 100 µM |  | > 100 |  | > 100 |  | > 100 |  | > 100 |  | > 100 |  | > 100 |  | > 100 |  | > 100
4 | CN(C)c1ncc(-c2ccc(C(F)(F)F)cc2)c(NC2CCCCCC2)n1 | 15.6 | 37.5 | 12.4 µM | 29.4 µM | 14.4 | 40.4 | 16.8 | 54 | 24 | > 100 | 14.4 µM | 30.6 | 14.7 | 30 | 11.2 µM | 30.2 | 17.3 µM | 62.2 | 13.3 | 28.8
5 | CS(=O)(=O)CCNCc1ccc(-c2ccc3ncnc(Nc4ccc(OCc5cccc(F)c5)c(C(F)(F)F)c4)c3c2)o1 | 4.81 | 11.4 | 3.54 µM | 9.04 µM | 2.74 | 4.11 | 3.86 | 7.68 | 4.36 | 8.67 | 4.37 µM | 7.99 | 3.98 | 8.48 | 3.58 µM | 7.25 | 4.73 µM | 14.9 | 3.78 | 9.83
6 | CN(C)C/C=C/C(=O)Nc1cc2c(Nc3ccc(F)c(Cl)c3F)ncnc2cc1OCCOC(F)F | 1.57 | 11.6 | 0.282 µM | 1.91 µM | 1.27 | 2.94 | 2.18 | 10.3 | 1.87 | 6.2 | 1.03 µM | 3.55 | 1.99 | 9.23 | < 0.0152 µM | 1.35 | 0.136 µM | 4.52 | 0.472 | 6.53
7 | Cc1nc([C@H]2CC[C@H]3[C@@H]4CCC5=CC(=O)CC[C@]5(C)[C@H]4CC[C@]23C)cs1 | > 100 | > 100 | > 53.3 µM | > 100 µM | 15.2 | > 100 | 3.31 | > 100 | 15.9 | > 100 | 5.31 µM | > 100 | 5.27 | > 100 | 7.01 µM | > 100 | > 100 µM | > 100 | > 26.7 | > 100
8 | COC(=O)c1c(O)c([N+](=O)[O-])cc2c1c1c(n2Cc2ccccc2)C(=O)c2ccccc2C1=O | 17.1 | 65.3 | 18.5 µM | 49 µM | 23.4 | 46 | 41 | > 100 | 10.6 | 24.1 | 2.18 µM | 6.82 | 31 | > 100 | 23.3 µM | 65.6 | 25.5 µM | 65.7 | 19.9 | > 100
9 | Fc1ccc(-c2ncn(C3CCNCC3)c2-c2ccnc(Oc3ccc(F)c(F)c3)n2)cc1 | 12.2 | > 25 | 10.8 µM | > 25 µM | 5.19 | 9.85 | 4.76 | 9.15 | 4.8 | 8.97 | 4.55 µM | 8.47 | 5 | 11.7 | 5.52 µM | 10.5 | 6.24 µM | > 14.6 | 5.59 | 12
10 | C=C1c2[nH]c3ccccc3c2C2C(CC)C1CCN2C (stereo not given) |  | > 100 |  | 70 µM |  | 56.5 |  | 95.6 |  | 67.6 |  | 58.9 |  | > 100 |  | > 100 |  | > 100 |  | > 100
11 | Cc1nc(CN2CCCCC2)c(O)c(=O)[nH]1 |  | > 100 |  | > 100 µM |  | > 100 |  | > 100 |  | > 100 |  | > 100 |  | > 100 |  | > 100 |  | > 100 |  | > 100
12 | COC1=CC23CCCN2CCc2cc4c(cc2C3C1O)OCO4 (stereo not given) |  | 67.8 |  | > 100 µM |  | > 100 |  | > 100 |  | > 100 |  | 64.2 |  | > 100 |  | > 100 |  | > 100 |  | > 100
13 | Cc1nccc2c3ccc(OCc4cn(-c5ccc(Cl)cc5)nn4)cc3n(CCCc3ccccc3)c12 | > 33.3 | > 33.3 | > 33.3 µM | > 33.3 µM | 0.745 | 2.79 | 4.58 | 13.4 | 0.616 | 1.26 | 4.22 µM | > 33.3 | 8.82 | > 33.3 | > 33.3 µM | > 33.3 | 8.81 µM | 31.2 | 6.83 | > 33.3
14 | Cc1cc(O)c(C2=NN(c3ccc(S(N)(=O)=O)cc3)C(c3ccc(N(C)C)cc3)C2)c(C)c1Cl (stereo not given) | 22.2 | 62.6 | 26.7 µM | 43.9 µM | 14.8 | 32.7 | 26.3 | 63.1 | 14 | 29.4 | 12.3 µM | 25.4 | 11.8 | 26.9 | 18.6 µM | 48.4 | 9.62 µM | 25 | 11 | 27.2
15 | CCN(CC)CCCC(C)Nc1nc(C)cc(Nc2ccc3nc(C)cc(N)c3c2)n1 (stereo not given) | 24.7 | 97 | > 100 µM | > 100 µM | 24.7 | 70.2 | 36.4 | > 100 | 33.7 | > 100 | 39.5 µM | > 100 | 26.4 | 98.7 | 23.9 µM | 91.9 | 37 µM | > 100 | 29 | 85.8
16 | COc1ccc(C[C@@H]2NC[C@@H](O)[C@@H]2OC(C)=O)cc1 | 3.73 |  | 1.14 µM |  | 3.97 |  | 2.33 |  | 11.8 |  | 2.04 µM |  |  | 0.453 | 2.06 µM |  | 3.19 µM |  |  | 0.261
17 | C[C@@H]1Cc2c([nH]c3ccccc23)[C@@H](c2c(F)cc(NC3CN(CCCF)C3)cc2F)N1CC(F)(F)CO | 10.3 | 23.6 | 1.64 µM | 8.82 µM | 1.77 | 3.72 | 1.97 | 4.51 | 1.87 | 3.84 | 2.35 µM | 5.71 | 6.1 | 21.2 | 4.16 µM | 16.7 | 9.69 µM | 23.1 | 5.24 | 20.8
